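Growth conditions: 96-well plates. Treatment: test compound, 48 hours, 5 concentrations. Analysis: linear interpolation between bracketing concentrations; unreached endpoints set to highest concentration. At the GI50, growth is halved.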 Activity calls are given as the source filed them. No stated cut-off is given here; in the data, active = GI50 up to about 1.1 µM and inactive = higher.
What was measured:
Assay in all cases: DTP human tumour cell line panel, 48 h
HCC 2998 = tested on: HCC 2998
SK-OV-3 = tested on: SK-OV-3
UO-31 = tested on: UO-31
HOP-92 = tested on: HOP-92
M14 = tested on: M14
NCI-H23 = tested on: NCI-H23
SNB-19 = tested on: SNB-19
OVCAR-8 = tested on: OVCAR-8
COLO 205 = tested on: COLO 205
SW-620 = tested on: SW-620
ACHN = tested on: ACHN
SF-268 = tested on: SF-268
RXF 393 = tested on: RXF 393
HT-29 = tested on: HT-29
SNB-75 = tested on: SNB-75
SF-539 = tested on: SF-539
CCRF-CEM = tested on: CCRF-CEM
SF-295 = tested on: SF-295
DMS-273 = tested on: DMS-273
SR = tested on: SR
HCT-15 = tested on: HCT-15
K562 = tested on: K562
OVCAR-5 = tested on: OVCAR-5
HOP-62 = tested on: HOP-62
KM-20L2 = tested on: KM-20L2
NCI-H460 = tested on: NCI-H460
SNB-78 = tested on: SNB-78
HCT-116 = tested on: HCT-116
Malme-3M = tested on: Malme-3M
RPMI-8226 = tested on: RPMI-8226
HOP-18 = tested on: HOP-18
XF498 = tested on: XF498
SK-MEL-28 = tested on: SK-MEL-28
M19-MEL = tested on: M19-MEL
UACC-257 = tested on: UACC-257
LOX IMVI = tested on: LOX IMVI
KM12 = tested on: KM12
786-0 = tested on: 786-0
MOLT-4 = tested on: MOLT-4
SK-MEL-5 = tested on: SK-MEL-5
IGROV-1 = tested on: IGROV-1
DLD-1 = tested on: DLD-1
OVCAR-3 = tested on: OVCAR-3
U-251 = tested on: U-251
A498 = tested on: A498
SN12C = tested on: SN12C
CAKI-1 = tested on: CAKI-1
EKVX = tested on: EKVX
NCI-H226 = tested on: NCI-H226
HL-60 = tested on: HL-60
TK-10 = tested on: TK-10
UACC-62 = tested on: UACC-62
LXFL 529 = tested on: LXFL 529
OVCAR-4 = tested on: OVCAR-4
A549 = tested on: A549
RXF 631 = tested on: RXF 631
SK-MEL-2 = tested on: SK-MEL-2
DMS-114 = tested on: DMS-114

Structure (SMILES): OCCCc1cnco1
- GI50 (HCC 2998): > 100 µM (inactive)
- GI50 (SK-OV-3): > 100 µM (inactive)
- GI50 (UO-31): > 100 µM (inactive)
- GI50 (HOP-92): > 100 µM (inactive)
- GI50 (M14): > 100 µM (inactive)
- GI50 (NCI-H23): > 100 µM (inactive)
- GI50 (SNB-19): > 100 µM (inactive)
- GI50 (OVCAR-8): > 100 µM (inactive)
- GI50 (COLO 205): > 100 µM (inactive)
- GI50 (SW-620): > 100 µM (inactive)
- GI50 (ACHN): > 100 µM (inactive)
- GI50 (SF-268): > 100 µM (inactive)
- GI50 (RXF 393): > 100 µM (inactive)
- GI50 (HT-29): > 100 µM (inactive)
- GI50 (SNB-75): > 100 µM (inactive)
- GI50 (SF-539): > 100 µM (inactive)
- GI50 (CCRF-CEM): > 100 µM (inactive)
- GI50 (SF-295): > 100 µM (inactive)
- GI50 (DMS-273): > 100 µM (inactive)
- GI50 (SR): > 100 µM (inactive)
- GI50 (HCT-15): > 100 µM
- GI50 (K562): > 100 µM (inactive)
- GI50 (OVCAR-5): > 100 µM (inactive)
- GI50 (HOP-62): > 100 µM (inactive)
- GI50 (KM-20L2): > 100 µM (inactive)
- GI50 (NCI-H460): > 100 µM (inactive)
- GI50 (SNB-78): > 100 µM (inactive)
- GI50 (HCT-116): > 100 µM (inactive)
- GI50 (Malme-3M): > 100 µM (inactive)
- GI50 (RPMI-8226): > 100 µM (inactive)
- GI50 (HOP-18): > 100 µM (inactive)
- GI50 (XF498): > 100 µM (inactive)
- GI50 (SK-MEL-28): > 100 µM (inactive)
- GI50 (M19-MEL): > 100 µM (inactive)
- GI50 (UACC-257): > 100 µM (inactive)
- GI50 (LOX IMVI): > 100 µM (inactive)
- GI50 (KM12): > 100 µM (inactive)
- GI50 (786-0): > 100 µM (inactive)
- GI50 (MOLT-4): > 100 µM (inactive)
- GI50 (SK-MEL-5): > 100 µM (inactive)
- GI50 (IGROV-1): > 100 µM (inactive)
- GI50 (DLD-1): > 100 µM (inactive)
- GI50 (OVCAR-3): > 100 µM (inactive)
- GI50 (U-251): > 100 µM (inactive)
- GI50 (A498): > 100 µM (inactive)
- GI50 (SN12C): > 100 µM (inactive)
- GI50 (CAKI-1): > 100 µM (inactive)
- GI50 (EKVX): > 100 µM (inactive)
- GI50 (NCI-H226): > 100 µM (inactive)
- GI50 (HL-60): > 100 µM (inactive)
- GI50 (TK-10): > 100 µM (inactive)
- GI50 (UACC-62): > 100 µM (inactive)
- GI50 (LXFL 529): > 100 µM (inactive)
- GI50 (OVCAR-4): > 100 µM (inactive)
- GI50 (A549): > 100 µM (inactive)

Structure (SMILES): N#CC(/C(=N\NC(=O)c1ccncc1)C(=O)Nc1ccc([N+](=O)[O-])cc1[N+](=O)[O-])c1nc(-c2ccc(Br)cc2)cs1 (stereo not drawn)
- GI50 (HCC 2998): > 100 µM (inactive)
- GI50 (SK-OV-3): > 100 µM (inactive)
- GI50 (UO-31): > 100 µM (inactive)
- GI50 (M14): > 100 µM (inactive)
- GI50 (SNB-19): > 100 µM (inactive)
- GI50 (OVCAR-8): > 100 µM (inactive)
- GI50 (RXF 631): > 100 µM (inactive)
- GI50 (COLO 205): > 100 µM (inactive)
- GI50 (SW-620): > 100 µM (inactive)
- GI50 (ACHN): > 100 µM (inactive)
- GI50 (SF-268): > 100 µM (inactive)
- GI50 (SNB-75): > 100 µM (inactive)
- GI50 (SF-539): > 100 µM (inactive)
- GI50 (CCRF-CEM): > 100 µM (inactive)
- GI50 (SF-295): > 100 µM (inactive)
- GI50 (HCT-15): > 100 µM
- GI50 (K562): > 100 µM (inactive)
- GI50 (OVCAR-5): > 100 µM (inactive)
- GI50 (SK-MEL-2): > 100 µM (inactive)
- GI50 (HOP-62): > 100 µM (inactive)
- GI50 (KM-20L2): > 100 µM (inactive)
- GI50 (NCI-H460): > 100 µM (inactive)
- GI50 (SNB-78): > 100 µM (inactive)
- GI50 (HCT-116): > 100 µM (inactive)
- GI50 (Malme-3M): > 100 µM (inactive)
- GI50 (RPMI-8226): > 100 µM (inactive)
- GI50 (SK-MEL-28): > 100 µM (inactive)
- GI50 (M19-MEL): > 100 µM (inactive)
- GI50 (UACC-257): > 100 µM (inactive)
- GI50 (LOX IMVI): > 100 µM (inactive)
- GI50 (KM12): > 100 µM (inactive)
- GI50 (786-0): > 100 µM (inactive)
- GI50 (MOLT-4): > 100 µM (inactive)
- GI50 (SK-MEL-5): > 100 µM (inactive)
- GI50 (IGROV-1): > 100 µM (inactive)
- GI50 (DLD-1): > 100 µM (inactive)
- GI50 (OVCAR-3): > 100 µM (inactive)
- GI50 (U-251): > 100 µM (inactive)
- GI50 (A498): > 100 µM (inactive)
- GI50 (CAKI-1): > 100 µM (inactive)
- GI50 (EKVX): > 100 µM (inactive)
- GI50 (HL-60): > 100 µM (inactive)
- GI50 (TK-10): > 100 µM (inactive)
- GI50 (UACC-62): > 100 µM (inactive)
- GI50 (LXFL 529): > 100 µM (inactive)
- GI50 (OVCAR-4): > 100 µM (inactive)
- GI50 (A549): > 100 µM (inactive)
- GI50 (DMS-114): > 100 µM (inactive)

Structure (SMILES): CC(=O)Nc1ccccc1-c1nc2ccccc2nc1-c1ccccc1
- GI50 (HCC 2998): > 100 µM (inactive)
- GI50 (SK-OV-3): > 100 µM (inactive)
- GI50 (UO-31): 54.7 µM (inactive)
- GI50 (HOP-92): > 100 µM (inactive)
- GI50 (M14): > 100 µM (inactive)
- GI50 (NCI-H23): > 100 µM (inactive)
- GI50 (SNB-19): > 100 µM (inactive)
- GI50 (OVCAR-8): > 100 µM (inactive)
- GI50 (COLO 205): > 100 µM (inactive)
- GI50 (SW-620): > 100 µM (inactive)
- GI50 (ACHN): > 100 µM (inactive)
- GI50 (RXF 393): > 100 µM (inactive)
- GI50 (HT-29): > 100 µM (inactive)
- GI50 (SNB-75): 69.7 µM (inactive)
- GI50 (SF-539): > 100 µM (inactive)
- GI50 (CCRF-CEM): > 100 µM (inactive)
- GI50 (SF-295): > 100 µM (inactive)
- GI50 (DMS-273): > 100 µM (inactive)
- GI50 (SR): > 100 µM (inactive)
- GI50 (HCT-15): > 100 µM
- GI50 (K562): > 100 µM (inactive)
- GI50 (SK-MEL-2): > 100 µM (inactive)
- GI50 (HOP-62): > 100 µM (inactive)
- GI50 (KM-20L2): > 100 µM (inactive)
- GI50 (NCI-H460): > 100 µM (inactive)
- GI50 (SNB-78): > 100 µM (inactive)
- GI50 (HCT-116): > 100 µM (inactive)
- GI50 (RPMI-8226): > 100 µM (inactive)
- GI50 (HOP-18): 0.521 µM (active)
- GI50 (XF498): > 100 µM (inactive)
- GI50 (SK-MEL-28): > 100 µM (inactive)
- GI50 (M19-MEL): > 100 µM (inactive)
- GI50 (UACC-257): > 100 µM (inactive)
- GI50 (KM12): > 100 µM (inactive)
- GI50 (786-0): > 100 µM (inactive)
- GI50 (MOLT-4): > 100 µM (inactive)
- GI50 (IGROV-1): > 100 µM (inactive)
- GI50 (DLD-1): > 100 µM (inactive)
- GI50 (OVCAR-3): > 100 µM (inactive)
- GI50 (U-251): > 100 µM (inactive)
- GI50 (A498): > 100 µM (inactive)
- GI50 (SN12C): > 100 µM (inactive)
- GI50 (CAKI-1): > 100 µM (inactive)
- GI50 (EKVX): > 100 µM (inactive)
- GI50 (HL-60): > 100 µM (inactive)
- GI50 (UACC-62): > 100 µM (inactive)
- GI50 (LXFL 529): > 100 µM (inactive)
- GI50 (OVCAR-4): > 100 µM (inactive)
- GI50 (A549): > 100 µM (inactive)
- GI50 (DMS-114): > 100 µM (inactive)

Reference: ChEMBL document CHEMBL1201862, “PubChem BioAssay data set” (2004)
